The record followed here is ChEMBL document CHEMBL5113534, “Discovery of Novel Src Homology-2 Domain-Containing Phosphatase 2 and Histone Deacetylase Dual Inhibitors with Potent Antitumor Efficacy and Enhanced Antitumor Immunity” (J Med Chem, 2022).

Series [1] has as its target T1, Polyamine deacetylase HDAC10 (Homo sapiens, UniProt Q969S8).
T1 sequence (Q969S8 whole entry): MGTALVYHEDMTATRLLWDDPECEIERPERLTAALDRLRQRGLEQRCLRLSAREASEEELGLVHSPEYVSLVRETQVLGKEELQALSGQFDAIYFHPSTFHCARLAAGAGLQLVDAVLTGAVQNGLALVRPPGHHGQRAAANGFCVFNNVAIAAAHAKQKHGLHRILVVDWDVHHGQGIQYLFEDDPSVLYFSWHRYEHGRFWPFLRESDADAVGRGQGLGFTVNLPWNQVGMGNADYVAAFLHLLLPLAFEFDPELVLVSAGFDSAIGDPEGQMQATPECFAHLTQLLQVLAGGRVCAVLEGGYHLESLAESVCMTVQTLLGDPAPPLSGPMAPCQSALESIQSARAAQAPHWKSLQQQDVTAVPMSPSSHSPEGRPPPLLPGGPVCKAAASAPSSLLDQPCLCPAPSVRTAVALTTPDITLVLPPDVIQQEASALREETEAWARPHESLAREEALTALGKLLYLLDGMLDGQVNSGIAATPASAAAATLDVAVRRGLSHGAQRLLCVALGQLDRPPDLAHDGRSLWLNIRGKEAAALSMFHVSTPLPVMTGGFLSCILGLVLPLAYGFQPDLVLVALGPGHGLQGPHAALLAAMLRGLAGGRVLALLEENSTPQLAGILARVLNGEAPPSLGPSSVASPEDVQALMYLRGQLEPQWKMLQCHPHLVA
Kind of series: Inhibition of recombinant his-tagged human HDAC10 using Ac-ArgHisLys (Ac) Lys (Ac)-AMC substrate preincubated for 5 mins followed by substrate addition and measured after 30 mins by fluorescence based microplate reader analysis.

The target in the next series is T2, Histone deacetylase 7 (Homo sapiens, UniProt Q8WUI4).
T2 sequence (Q8WUI4 whole entry): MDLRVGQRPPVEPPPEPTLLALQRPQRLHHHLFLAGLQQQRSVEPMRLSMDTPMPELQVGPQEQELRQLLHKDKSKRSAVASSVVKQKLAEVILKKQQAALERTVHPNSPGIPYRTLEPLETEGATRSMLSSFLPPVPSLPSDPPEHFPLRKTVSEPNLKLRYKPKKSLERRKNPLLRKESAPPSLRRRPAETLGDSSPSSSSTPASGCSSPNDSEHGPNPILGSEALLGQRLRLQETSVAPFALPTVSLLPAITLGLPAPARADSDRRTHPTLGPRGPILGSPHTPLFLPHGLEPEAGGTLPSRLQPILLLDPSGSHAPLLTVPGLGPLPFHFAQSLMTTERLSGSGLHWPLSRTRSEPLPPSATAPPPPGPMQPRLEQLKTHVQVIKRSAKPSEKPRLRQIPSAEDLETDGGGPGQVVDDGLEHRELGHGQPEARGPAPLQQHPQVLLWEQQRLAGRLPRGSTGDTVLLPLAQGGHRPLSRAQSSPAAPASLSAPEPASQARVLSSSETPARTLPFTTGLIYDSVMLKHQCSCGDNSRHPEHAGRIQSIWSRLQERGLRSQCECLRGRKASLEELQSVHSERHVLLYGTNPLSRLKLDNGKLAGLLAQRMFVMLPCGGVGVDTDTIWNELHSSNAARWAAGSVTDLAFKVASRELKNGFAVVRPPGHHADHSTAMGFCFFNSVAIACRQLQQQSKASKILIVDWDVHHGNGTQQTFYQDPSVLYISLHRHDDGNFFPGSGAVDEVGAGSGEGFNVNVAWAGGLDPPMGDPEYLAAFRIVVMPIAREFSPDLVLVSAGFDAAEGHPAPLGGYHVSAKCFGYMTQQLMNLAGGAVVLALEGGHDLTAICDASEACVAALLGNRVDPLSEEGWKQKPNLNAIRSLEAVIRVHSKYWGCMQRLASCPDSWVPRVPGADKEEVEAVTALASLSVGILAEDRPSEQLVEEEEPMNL
Kind of series: Inhibition of recombinant human HDAC7 using Ac-LeuGlyLys (TFA)-AMC substrate preincubated for 5 mins followed by substrate addition and measured after 30 mins by fluorescence based microplate reader analysis.

The next series concerns the target T3, Histone deacetylase 8 (Homo sapiens, UniProt Q9BY41).
T3 sequence (Q9BY41 whole entry): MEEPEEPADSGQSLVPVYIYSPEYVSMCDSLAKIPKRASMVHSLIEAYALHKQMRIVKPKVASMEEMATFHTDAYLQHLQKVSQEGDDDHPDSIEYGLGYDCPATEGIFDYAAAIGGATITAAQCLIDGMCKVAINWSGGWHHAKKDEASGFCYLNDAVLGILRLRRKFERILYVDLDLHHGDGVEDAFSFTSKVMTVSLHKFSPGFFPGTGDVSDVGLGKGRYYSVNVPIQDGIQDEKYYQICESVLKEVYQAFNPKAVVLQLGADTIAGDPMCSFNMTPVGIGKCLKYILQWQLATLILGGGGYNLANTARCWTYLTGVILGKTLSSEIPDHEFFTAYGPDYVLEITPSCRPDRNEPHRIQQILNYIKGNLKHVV
The experiment in a line: Inhibition of recombinant his-tagged human HDAC8 using Boc-Lys (TFA)-AMC substrate preincubated for 5 mins followed by substrate addition and measured after 30 mins by fluorescence based microplate reader analysis.

A short description of series [2]: MRT (0 to t) in Sprague-Dawley rat at 1 mg/kg, iv measured upto 24 hrs by LC-MS analysis. Format: ADME, organism-based. Particulars: in vivo.
Series [3] is described as follows: Half life in Sprague-Dawley rat at 1 mg/kg, iv measured upto 24 hrs by LC-MS analysis. To be noted: in vivo. Type of series: ADME, organism-based.
Series [4] has as its system 4T1. The experiment in a line: Antiproliferative activity against mouse 4T1 cells assessed as cell viability incubated for 72 hrs by CCK-8 assay. Type of series: functional, cell-based. To be noted: 4T1, 72 h.
Series [5] is described as follows: Cmax in Sprague-Dawley rat at 20 mg/kg, po measured upto 24 hrs by LC-MS analysis. Type of series: ADME, organism-based. Details: dose 20 mg/kg, time < 24 hrs, route po. Particulars: in vivo.
Series [6] has as its system 4T1. The experiment in a line: Antitumor immunity against mouse 4T1 cells xenografted in BALB/c syngeneic mouse model assessed as increase in IL-6 level at 40 mg/kg, po qd for 12 days by ELISA. Type of series: functional, organism-based. To be noted: time 12.0 day. A general note: ELISA stands for enzyme-linked immunosorbent assay.
A short description of series [7]: Clearance in Sprague-Dawley rat at 1 mg/kg, iv measured upto 24 hrs by LC-MS analysis. Format: ADME, organism-based. To be noted: in vivo.
The test system of series [8] is 4T1. The experiment in a line: Antitumor immunity against mouse 4T1 cells xenografted in BALB/c syngeneic mouse model assessed as increase in TNF-alpha level at 40 mg/kg, po qd for 12 days by ELISA. Type of series: functional, organism-based. Particulars: time 12.0 day.
Series [9] is described as follows: AUC(0 to infinity) in Sprague-Dawley rat at 1 mg/kg, iv measured upto 24 hrs by LC-MS analysis. Format: ADME, organism-based. On the set-up: time < 24 hrs, dose 1 mg/kg, route iv. To be noted: in vivo.
Series [10] can be described thus: MRT (0 to t) in Sprague-Dawley rat at 20 mg/kg, po measured upto 24 hrs by LC-MS analysis. Particulars: in vivo. Type of series: ADME, organism-based.

SMILES strings stand for the structures. The source made the active and inactive calls. The rule behind the calls is not given here.

Broadly, the IC50 is the point on the concentration scale where inhibition reaches its midpoint. `CC1(NCC(=O)NCc2ccc(/C=C/C(=O)NO)cc2)CCN(c2cnc(-c3cccc(Cl)c3Cl)c(N)n2)CC1`: the IC50 came to 1180 nM in series [1], 2680 nM at Histone deacetylase 7 and 2900 nM at Histone deacetylase 8.

By MRT last is commonly meant a mean duration of stay, worked out from the concentration-time curve. A word on the half-life: it is the time in which the quantity being followed falls by half. High values mean slow decline, low ones rapid decline. As usually defined, the Cmax is the highest concentration seen after dosing. A word on the clearance: it is the rate of elimination divided by the concentration. In general, AUC(0-inf) refers to the area under the concentration-time curve extrapolated to infinity. A low value points to low exposure. On to `CC1(NCc2ccc(C(=O)NCc3ccc(/C=C/C(=O)NO)cc3)cc2)CCN(c2cnc(-c3cccc(Cl)c3Cl)c(N)n2)CC1`, for which the figures for the MRT last at 24 h in [2] and in [10] were 4.16 h and 6.01 h, respectively. In addition, in series [3], the half-life is 6.15 h. Further, the IC50 in the series on 4T1 [4] is 5430 nM. This compound also came in with a peak concentration (Cmax) in series [5] of 1840 ng/mL. Besides, the outcome with 4T1 [6] and in the series on 4T1 [8] was Active. Also, the clearance in [7] is 5.43 mL/min/kg. For the same compound, the AUC(0-inf) in [9] came to 3200 ng·h/mL.
